Laboratory results from patent US20160143913A1, “COMBINATION” (Novartis AG, priority 2009, published 2016).
Where two headings read alike, the source gives them in different places.

Legend:
Assay type in all cases: cell-based
NCI-H1355 = assay: Cell growth inhibition assay (Cell Titer Glo), NCI-H1355; conditions: Homo sapiens, 72 h; NCI-H1355 lung; KRAS_G13C; PIK3CA/PTEN WT; single agent, 3 days, mean ± std
Excerpt: (§1) Human breast tumor line, MDA-MB-175-VII, human colon tumor lines, Colo-205, DLD-1, HCT-8, HT-29, LS-1034, NCI-H508, RKO, SW1417, SW1463, SW480, SW837 and T84, and human lung tumor lines, A427, A549, Calu 3, Calu 6, HCC827, NCI-H1155, NCI-H1355, NCI-H1792, NCI-H23, NCI-H727, SW1573 and SW900 were from ATCC. Human breast tumor line EFM-19 was from German Collection of Microorganisms and Cell Cultures. Human lung tumor line COR-L23 was from European Collection of Cell Cultures (UK). Human colon tumor line KM12 and human lung tumor line Hop62 were from National Cancer Institute. MV522 was from University of California at San Diego. All lines were cultured in RPMI 1640 medium containing 10% fetal bovine serum (FBS).
(§2) All cells were cultured for a minimum of 72 hours prior to cell plating. […] ATP levels were determined by adding Cell Titer Glo® (Promega) according to the manufacturer's protocol. Briefly, Cell Titer Glo® was added each plate, incubated for 30 minutes then luminescent signal was read on the SpectraMax L plate reader with a 0.5 sec integration time.
(§3) Inhibition of cell growth was estimated after treatment with compound or combination of compounds for three days and comparing the signal to cells treated with vehicle (DMSO). Cell growth was calculated relative to vehicle (DMSO) treated control wells. […]

NCI-H1792 = assay: Cell growth inhibition assay (Cell Titer Glo), NCI-H1792; conditions: Homo sapiens, 72 h; NCI-H1792 lung; KRAS_G12C; PIK3CA/PTEN WT; single agent, 3 days, mean ± std
Excerpt: as §1, §2, §3

Calu6 = assay: Cell growth inhibition assay (Cell Titer Glo), Calu6; conditions: Homo sapiens, Calu-6, 72 h; Calu6 lung; KRAS_Q61K; PIK3CA/PTEN WT; single agent, 3 days, mean ± std
Excerpt: as §1, §2, §3

MV522 = assay: Cell growth inhibition assay (Cell Titer Glo), MV522; conditions: Homo sapiens, 72 h; MV522 lung; BRAF_V600E; PIK3CA/PTEN WT; single agent, 3 days, mean ± std
Excerpt: as §1, §2, §3

NCI-H1155 = assay: Cell growth inhibition assay (Cell Titer Glo), NCI-H1155; conditions: Homo sapiens, 72 h; NCI-H1155 lung; KRAS_Q61H; PTEN_R233*; single agent, 3 days, mean ± std
Excerpt: as §1, §2, §3

SW1573 = assay: Cell growth inhibition assay (Cell Titer Glo), SW1573; conditions: Homo sapiens, 72 h; SW1573 lung; KRAS_G12C; PIK3CA_K111E; single agent, 3 days, mean ± std
Excerpt: as §1, §2, §3

HOP62 = assay: Cell growth inhibition assay (Cell Titer Glo), HOP62; conditions: Homo sapiens, HOP-62, 72 h; HOP62 lung; KRAS_G12C; PIK3CA/PTEN WT; single agent, 3 days, mean ± std
Excerpt: as §1, §2, §3

SW900 = assay: Cell growth inhibition assay (Cell Titer Glo), SW900; conditions: Homo sapiens, 72 h; SW900 lung; KRAS_G12V; PIK3CA/PTEN WT; single agent, 3 days, mean ± std
Excerpt: as §1, §2, §3

A427 = assay: Cell growth inhibition assay (Cell Titer Glo), A427; conditions: Homo sapiens, A-427, 72 h; A427 lung; KRAS_G12D; PIK3CA/PTEN WT; single agent, 3 days, mean ± std
Excerpt: as §1, §2, §3

HCC827 = assay: Cell growth inhibition assay (Cell Titer Glo), HCC827; conditions: Homo sapiens, 72 h; HCC827 lung; KRAS/RAF WT; PIK3CA/PTEN WT; EGFR E746_A750 deletion mutation; single agent, 3 days, mean ± std
Excerpt: as §1, §2, §3

CaLu3 = assay: Cell growth inhibition assay (Cell Titer Glo), CaLu3; conditions: Homo sapiens, Calu-3, 72 h; CaLu3 lung; KRAS/RAF WT; PIK3CA/PTEN WT; HER2+; single agent, 3 days, mean ± std
Excerpt: as §1, §2, §3

NCI-H727 = assay: Cell growth inhibition assay (Cell Titer Glo), NCI-H727; conditions: Homo sapiens, 72 h; NCI-H727 lung; KRAS_G12V; PIK3CA/PTEN WT; single agent, 3 days, mean ± std
Excerpt: as §1, §2, §3

human colon tumor lines = assay: Cell growth inhibition assay, colon lines
Excerpt: as §1
as §2, with “plating. Cells were assayed in a 96-well tissue culture plate (NUNC 136102) of RPMI medium containing 10% FBS for all cells at 1,000 cells per well.” for “plating.”
as §3
Combination effects on potency were evaluated using Combination Index (CI) which was calculated with the back-interpolated IC50 values and the mutually non-exclusive equation derived by Chou and Talalay (1): […]
The combination effects on the response scale were quantified by Excess Over Highest Single Agent (EOHSA) based on the concept of nonlinear blending as described in detail by Peterson and Novick (2007) and Peterson (2010) [(2;3) [Peterson and Novick, 2007; Peterson, 2010]. […]

human lung tumor lines = assay: Cell growth inhibition assay, lung tumor lines; conditions: COR-L23, A549, NCI-H1355, NCI-H1792, NCI-H23, Calu 6 and MV522, range over the lines, read-out: IC50s, single agent
Excerpt: as §1, §2, §3

In the case of `CC(=O)Nc1cccc(-n2c(=O)n(C3CC3)c(=O)c3c(Nc4ccc(I)cc4F)n(C)c(=O)c(C)c32)c1` [Compound A, N-{3-[3-cyclopropyl-5-(2-fluoro-4-iodo-phenylamino)-6,8-dimethyl-2,4,7-trioxo-3,4,6,7-tetrahydro-2H-pyrido[4,3-d]pyrimidin-1-yl]phenyl}acetamide], the IC50 (NCI-H1355) is reported as 52 ± 10 nM, the IC50 (NCI-H1792) is reported as 53 ± 16 nM and the IC50 (Calu6) is reported as 4 ± 3 nM. For the same molecule, the IC50 (MV522) was 2 ± 1 nM, the IC50 (NCI-H1155) was over 1000 nM and the IC50 (SW1573) was over 1000 nM. For the same molecule, the IC50 (HOP62) was over 1000 nM, the IC50 (SW900) was 127 nM and the IC50 (A427) was 22 ± 3 nM. It also gave an IC50 (HCC827) of over 1000 nM, an IC50 (CaLu3) of 158 ± 19 nM and an IC50 (NCI-H727) of 2 nM. For the same molecule, the IC50 (human colon tumor lines; LS-1034, Colo-205, SW1463, HT29, SW480 and SW1417, read-out: IC50, single agent) was at most 37 nM, the IC50 (human colon tumor lines; colon lines depicted in Table 1, range over the lines, read-out: IC50s, single agent) was 1 to 632 nM and the IC50 (human lung tumor lines) was 2 to 329 nM.
